Tests used:
Mcl-1/Bim = Mcl-1/Bim (Homo sapiens, UniProt Q07820); experiment: ELISA, disruption of Mcl-1/Bim binding; details: for IC50: read-out: Mcl-1/Bim IC50, ELISA, average ± SEM, n ≥ 3; for fold more potent than 1 against Mcl-1/Bim: ELISA IC50 relative to (±)-marinopyrrole A (1)
Bcl-xL/Bim = Bcl-xL/Bim (Homo sapiens, UniProt Q07817); experiment: ELISA, disruption of Bcl-xL/Bim binding; details: for IC50: read-out: Bcl-xL/Bim IC50, ELISA, average ± SEM, n ≥ 3; for fold more potent than 1 against Bcl-xL/Bim: ELISA IC50 relative to (±)-marinopyrrole A (1); for selectivity for Bcl-xL over Mcl-1: ratio of ELISA IC50 values
Sequence of Bcl-xL/Bim (Q07817 whole entry): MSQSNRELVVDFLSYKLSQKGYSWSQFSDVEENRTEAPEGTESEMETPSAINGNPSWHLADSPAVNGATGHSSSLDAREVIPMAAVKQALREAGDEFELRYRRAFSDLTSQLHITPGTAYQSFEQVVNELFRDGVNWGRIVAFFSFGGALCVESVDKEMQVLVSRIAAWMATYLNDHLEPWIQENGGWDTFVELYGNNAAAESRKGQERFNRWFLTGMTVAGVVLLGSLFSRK

[1] = tested on: MDA-MB-468 breast cancer cells; type: cell-based, human; details: MDA-MB-468 cells; for decrease of Mcl-1 levels and caspase 3 cleavage: concentrations as high as 10 μM (data not shown); for decrease of Mcl-1 levels and induction of apoptosis (caspase 3 activation): 3 μM, western blot

Sequence of Mcl-1/Bim (Q07820 whole entry): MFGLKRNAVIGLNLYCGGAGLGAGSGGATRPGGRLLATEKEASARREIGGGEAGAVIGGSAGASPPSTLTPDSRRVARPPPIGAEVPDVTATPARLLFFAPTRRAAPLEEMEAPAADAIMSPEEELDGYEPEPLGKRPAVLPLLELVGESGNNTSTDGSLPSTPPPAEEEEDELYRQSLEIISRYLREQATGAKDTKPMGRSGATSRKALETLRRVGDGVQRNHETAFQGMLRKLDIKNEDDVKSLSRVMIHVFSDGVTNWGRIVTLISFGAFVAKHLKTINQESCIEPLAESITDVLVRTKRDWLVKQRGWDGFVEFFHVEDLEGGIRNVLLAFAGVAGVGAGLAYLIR

Compound	IC50 (Mcl-1/Bim) [µM]	decrease of Mcl-1 levels and induction of apoptosis (caspase 3 activation) [1]	other results
Cc1cc(O)c(C(=O)c2[nH]c(Cl)c(Cl)c2-n2c(C(=O)c3cc(Cl)c(C)cc3O)cc(Cl)c2Cl)cc1Cl [compound 24, (4,4′,5,5′-Tetrachloro-1′H-1,3′-bipyrrole-2,2′-diyl)bis((5-chloro-2-hydroxy-4-methylphenyl)methanone)]	2.6 ± 0.6		IC50 (Bcl-xL/Bim): 2.5 ± 0.4 µM
C#Cc1ccc(C(=O)c2[nH]c(Cl)c(Cl)c2-n2c(C(=O)c3ccc(C#C)cc3O)cc(Cl)c2Cl)c(O)c1 [compound 25, (4,4′,5,5′-Tetrachloro-1′H-1,3′-bipyrrole-2,2′-diyl)bis((4-ethynyl-2-hydroxyphenyl)methanone)]	3.9 ± 0.2		IC50 (Bcl-xL/Bim): 5.6 ± 0.5 µM
CCc1ccc(C(=O)c2[nH]c(Cl)c(Cl)c2-n2c(C(=O)c3ccc(CC)cc3O)cc(Cl)c2Cl)c(O)c1 [compound 27, (4,4′,5,5′-Tetrachloro-1′H-1,3′-bipyrrole-2,2′-diyl)bis((4-ethyl-2-hydroxyphenyl)methanone)]	2.1 ± 0.5		IC50 (Bcl-xL/Bim): 3.9 ± 1.3 µM
O=C(c1ccc(OS(=O)(=O)C(F)(F)F)cc1O)c1[nH]c(Cl)c(Cl)c1-n1c(C(=O)c2ccccc2O)cc(Cl)c1Cl [compound 28]			fold more potent than 1 against Mcl-1/Bim (Mcl-1/Bim): nine; fold more potent than 1 against Bcl-xL/Bim (Bcl-xL/Bim): eight
O=C(c1ccc(O)cc1O)c1[nH]c(Cl)c(Cl)c1-n1c(C(=O)c2ccc(O)cc2O)cc(Cl)c1Cl [compound 29]			decrease of Mcl-1 levels and caspase 3 cleavage [1]: inactive at decreasing Mcl-1 levels and at inducing caspase 3 cleavage
O=C(c1cc(Cl)c(O)cc1O)c1[nH]c(Cl)c(Cl)c1-n1c(C(=O)c2cc(Cl)c(O)cc2O)cc(Cl)c1Cl [compound 30]			decrease of Mcl-1 levels and caspase 3 cleavage [1]: inactive at decreasing Mcl-1 levels and at inducing caspase 3 cleavage
CCOC(=O)CSc1ccc(C(=O)c2[nH]c(Cl)c(Cl)c2-n2c(C(=O)c3ccc(SCC(=O)OCC)cc3O)cc(Cl)c2Cl)c(O)c1 [compound 31]		little activity in intact cells	
O=C(c1ccc(SCc2ccccc2)cc1O)c1[nH]c(Cl)c(Cl)c1-n1c(C(=O)c2ccc(SCc3ccccc3)cc2O)cc(Cl)c1Cl [compound 32]		little activity in intact cells	
COc1ccc(CSc2ccc(C(=O)c3[nH]c(Cl)c(Cl)c3-n3c(C(=O)c4ccc(SCc5ccc(OC)cc5)cc4O)cc(Cl)c3Cl)c(O)c2)cc1 [compound 33]		little activity in intact cells	
CCOC(=O)Cn1cc(-c2cc(O)c(C(=O)c3[nH]c(Cl)c(Cl)c3-n3c(C(=O)c4cc(Cl)c(-c5cn(CC(=O)OCC)nn5)cc4O)cc(Cl)c3Cl)cc2Cl)nn1 [compound 36, Diethyl 2,2′-(4,4′-((4,4′,5,5′-tetrachloro-1′H-1,3′-bipyrrole-2,2′-dicarbonyl)bis(2-chloro-5-hydroxy-4,1-phenylene))bis(1H-1,2,3-triazole-4,1-diyl))diacetate]	7.8 ± 1.5		
CC(C)(C)OC(=O)Cn1cc(-c2cc(O)c(C(=O)c3[nH]c(Cl)c(Cl)c3-n3c(C(=O)c4cc(Cl)c(-c5cn(CC(=O)OC(C)(C)C)nn5)cc4O)cc(Cl)c3Cl)cc2Cl)nn1 [compound 37, Di-tert-butyl 2,2′-(4,4′-((4,4′,5,5′-tetrachloro-1′H-1,3′-bipyrrole-2,2′-dicarbonyl)bis(2-chloro-5-hydroxy-4,1-phenylene))bis(1H-1,2,3-triazole-4,1-diyl))diacetate]		little activity in intact cells	
O=C(O)Cn1cc(-c2cc(O)c(C(=O)c3[nH]c(Cl)c(Cl)c3-n3c(C(=O)c4cc(Cl)c(-c5cn(CC(=O)O)nn5)cc4O)cc(Cl)c3Cl)cc2Cl)nn1 [compound 38, 2,2′-(4,4′-((4,4′,5,5′-Tetrachloro-1′H-1,3′-bipyrrole-2,2′-dicarbonyl)bis(2-chloro-5-hydroxy-4,1-phenylene))bis(1H-1,2,3-triazole-4,1-diyl))diacetic acid]	5.2 ± 0.8		decrease of Mcl-1 levels and caspase 3 cleavage [1]: inactive at decreasing Mcl-1 levels and at inducing caspase 3 cleavage
O=C(c1ccc(-c2cn(-c3ccccc3)nn2)cc1O)c1[nH]c(Cl)c(Cl)c1-n1c(C(=O)c2ccc(-c3cn(-c4ccccc4)nn3)cc2O)cc(Cl)c1Cl [compound 40]		little activity in intact cells	selectivity for Bcl-xL over Mcl-1 (Bcl-xL/Bim): 2 fold
CCOC(=O)Cn1cc(-c2ccc(C(=O)c3[nH]c(Cl)c(Cl)c3-n3c(C(=O)c4ccc(-c5cn(CC(=O)OCC)nn5)cc4O)cc(Cl)c3Cl)c(O)c2)nn1 [compound 43, Diethyl 2,2′-(4,4′-((4,4′,5,5′-tetrachloro-1′H-1,3′-bipyrrole-2,2′-dicarbonyl)bis(3-hydroxy-4,1-phenylene))bis(1H-1,2,3-triazole-4,1-diyl))diacetate]	18.4 ± 0.3		
O=C(O)Cn1cc(-c2ccc(C(=O)c3[nH]c(Cl)c(Cl)c3-n3c(C(=O)c4ccc(-c5cn(CC(=O)O)nn5)cc4O)cc(Cl)c3Cl)c(O)c2)nn1 [compound 45, 2,2′-(4,4′-((4,4′,5,5′-Tetrachloro-1′H-1,3′-bipyrrole-2,2′-dicarbonyl)bis(3-hydroxy-4,1-phenylene))bis(1H-1,2,3-triazole-4,1-diyl))diacetic acid]	16.5 ± 1.9		
O=C(c1ccccc1O)c1[nH]c(Cl)c(Cl)c1-n1c(C(=O)c2cc(Cl)ccc2O)cc(Cl)c1Cl [compound 48]		not active in intact cells	
O=C(c1ccccc1O)c1[nH]c(Cl)c(Cl)c1-n1c(C(=O)c2c(O)cccc2F)cc(Cl)c1Cl [compound 52]		not active in intact cells	
Cn1c(Cl)c(Cl)c(-n2c(C(=O)c3ccccc3O)cc(Cl)c2Cl)c1C(=O)c1ccccc1O [compound 54, (4,4′,5,5′-tetrachloro-1′-methyl-1′H-[1,3′-bipyrrole]-2,2′-diyl)bis((2-hydroxyphenyl)methanone)]			selectivity for Bcl-xL over Mcl-1 (Bcl-xL/Bim): selectivity for Bcl-xL/Bim over Mcl-/Bim
(4,4′,5,5′-Tetrachloro-1′H-1,3′-bipyrrole-2,2′-diyl)bis((2-hydroxy-4-(1-octyl-1H-1,2,3-triazol-5-yl)phenyl)methanone) [compound 42]	0.6 ± 0.3	little activity in intact cells	fold more potent than 1 against Mcl-1/Bim (Mcl-1/Bim): 15 fold; fold more potent than 1 against Bcl-xL/Bim (Bcl-xL/Bim): 33 fold; IC50 (Bcl-xL/Bim): 0.5 ± 0.1 µM
